Reference: patent US10052320B2, “Substituted quinoxalines as FGFR kinase inhibitors” (ASTEX THERAPEUTICS LIMITED, priority 2011, dated 2018)

How the values were obtained:
[1] = system: Ba/F3-FGFR3-transfected cells in the presence of 10 ng/ml murine IL3; test: Ba/F3-FGFR3 (plus IL3) cellular proliferation counterscreen, Alamar Blue; format: cell-based; settings: Mus musculus; plus 10 ng/ml murine IL3; 384 well; read-out: BAF3-FGFR 3 (PLUS IL3) 384 well pIC50 (converted)
Experimental: Ba/F3-FGFR3 (Minus IL3 or Plus IL3) (Cellular Proliferation Assay)
(§1) In a 384 well plate, 100 nl of compound dilution in DMSO was sprayed before adding 50 μl cell culture medium (phenol red free RPMI-1640, 10% FBS, 2 mM L-Glutamine and 50 μg/ml Gentamycin) containing 20000 cells per well of Ba/F3-FGFR3-transfected cells. Cells were put in an incubator at 37° C. and 5% CO2. After 24 hours, 10 μl of Alamar Blue solution (0.5 mM K3Fe(CN)6, 0.5 mM KaFe(CN)6, 0.15 mM Resazurin and 100 mM Phosphate Buffer) was added to the wells, incubated for 4 hours at 37° C. and 5% CO2 before RFU's (Relative Fluorescence Units) (ex. 540 nm., em. 590 nm.) were measured in a flurorescence plate reader.
As a counterscreen the same experiment was performed in the presence of 10 ng/ml murine IL3.
as §1, with “a 96” for “a 384”, “plate, 180” for “plate, 100 nl of compound dilution in DMSO was sprayed before adding 50”, “containing 10000” for “containing 20000”, “Ba/F3-FGFR3-transfected cells were pipette and 20 μl of compound dilution in DMSO was added.” for “Ba/F3-FGFR3-transfected cells.”, “hours, 40” for “hours, 10”

[2] = target: FGFR4 (h) (Homo sapiens, UniProt P22455); test: FGFR4 (enzymatic assay), TR-FRET; format: biochemical; settings: read-out: FGFR 4 pIC50 (converted)
Experimental: In a final reaction volume of 30 μL, FGFR4 (h) (60 ng/ml) was incubated with 50 mM HEPES pH 7.5, 6 mM MnCl2, 1 mM DTT, 0.1 mM Na3VO4, 0.01% Triton-X-100, 500 nM Btn-Flt3 and 5 μM ATP in the presence of compound (1% DMSO final). […] Time-Resolved Fluorescence Resonance Energy Transfer (TR-FRET) signal (ex340 nm. Em 620 nm, em 655 nm) was measured afterwards and results are expressed in RFU (Relative Fluorescence Units).

[3] = target: Ba/F3-KDR-transfected cells (Homo sapiens, UniProt P35968); test: Ba/F3-KDR (minus IL3) cellular proliferation assay, Alamar Blue; format: cell-based; settings: minus IL3
Outline: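 Ba/F3-KDR cells in RPMI-1640 with 10% FBS, 20000 (384-well) or 10000 (96-well) per well, given compound for 24 h at 37° C; Alamar Blue then added for 4 h and fluorescence read (ex 540/em 590 nm). Counterscreen run identically with 10 ng/ml murine IL3.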

Sequence of FGFR4 (h) (P22455 22-802): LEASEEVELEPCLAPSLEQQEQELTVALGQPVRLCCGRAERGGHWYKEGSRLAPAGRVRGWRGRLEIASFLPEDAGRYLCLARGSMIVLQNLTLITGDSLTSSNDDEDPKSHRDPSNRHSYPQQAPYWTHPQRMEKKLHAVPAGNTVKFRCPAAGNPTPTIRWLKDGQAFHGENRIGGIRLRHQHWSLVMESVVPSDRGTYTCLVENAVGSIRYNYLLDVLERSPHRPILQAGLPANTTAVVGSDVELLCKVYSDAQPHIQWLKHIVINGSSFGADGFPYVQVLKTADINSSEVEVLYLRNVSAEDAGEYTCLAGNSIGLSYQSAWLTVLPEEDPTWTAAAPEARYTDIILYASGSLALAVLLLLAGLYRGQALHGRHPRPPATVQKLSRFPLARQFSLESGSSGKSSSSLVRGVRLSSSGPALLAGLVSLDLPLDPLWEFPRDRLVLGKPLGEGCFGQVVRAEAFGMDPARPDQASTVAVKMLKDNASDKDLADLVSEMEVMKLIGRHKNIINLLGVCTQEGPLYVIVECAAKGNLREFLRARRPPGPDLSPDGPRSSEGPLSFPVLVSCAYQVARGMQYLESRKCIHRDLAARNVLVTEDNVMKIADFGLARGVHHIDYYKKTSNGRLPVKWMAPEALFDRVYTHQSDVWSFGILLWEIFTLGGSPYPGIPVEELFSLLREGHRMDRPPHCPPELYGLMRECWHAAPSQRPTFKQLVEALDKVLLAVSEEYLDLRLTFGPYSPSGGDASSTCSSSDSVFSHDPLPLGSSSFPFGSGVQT
Sequence of Ba/F3-KDR-transfected cells (P35968 whole entry, change not shown): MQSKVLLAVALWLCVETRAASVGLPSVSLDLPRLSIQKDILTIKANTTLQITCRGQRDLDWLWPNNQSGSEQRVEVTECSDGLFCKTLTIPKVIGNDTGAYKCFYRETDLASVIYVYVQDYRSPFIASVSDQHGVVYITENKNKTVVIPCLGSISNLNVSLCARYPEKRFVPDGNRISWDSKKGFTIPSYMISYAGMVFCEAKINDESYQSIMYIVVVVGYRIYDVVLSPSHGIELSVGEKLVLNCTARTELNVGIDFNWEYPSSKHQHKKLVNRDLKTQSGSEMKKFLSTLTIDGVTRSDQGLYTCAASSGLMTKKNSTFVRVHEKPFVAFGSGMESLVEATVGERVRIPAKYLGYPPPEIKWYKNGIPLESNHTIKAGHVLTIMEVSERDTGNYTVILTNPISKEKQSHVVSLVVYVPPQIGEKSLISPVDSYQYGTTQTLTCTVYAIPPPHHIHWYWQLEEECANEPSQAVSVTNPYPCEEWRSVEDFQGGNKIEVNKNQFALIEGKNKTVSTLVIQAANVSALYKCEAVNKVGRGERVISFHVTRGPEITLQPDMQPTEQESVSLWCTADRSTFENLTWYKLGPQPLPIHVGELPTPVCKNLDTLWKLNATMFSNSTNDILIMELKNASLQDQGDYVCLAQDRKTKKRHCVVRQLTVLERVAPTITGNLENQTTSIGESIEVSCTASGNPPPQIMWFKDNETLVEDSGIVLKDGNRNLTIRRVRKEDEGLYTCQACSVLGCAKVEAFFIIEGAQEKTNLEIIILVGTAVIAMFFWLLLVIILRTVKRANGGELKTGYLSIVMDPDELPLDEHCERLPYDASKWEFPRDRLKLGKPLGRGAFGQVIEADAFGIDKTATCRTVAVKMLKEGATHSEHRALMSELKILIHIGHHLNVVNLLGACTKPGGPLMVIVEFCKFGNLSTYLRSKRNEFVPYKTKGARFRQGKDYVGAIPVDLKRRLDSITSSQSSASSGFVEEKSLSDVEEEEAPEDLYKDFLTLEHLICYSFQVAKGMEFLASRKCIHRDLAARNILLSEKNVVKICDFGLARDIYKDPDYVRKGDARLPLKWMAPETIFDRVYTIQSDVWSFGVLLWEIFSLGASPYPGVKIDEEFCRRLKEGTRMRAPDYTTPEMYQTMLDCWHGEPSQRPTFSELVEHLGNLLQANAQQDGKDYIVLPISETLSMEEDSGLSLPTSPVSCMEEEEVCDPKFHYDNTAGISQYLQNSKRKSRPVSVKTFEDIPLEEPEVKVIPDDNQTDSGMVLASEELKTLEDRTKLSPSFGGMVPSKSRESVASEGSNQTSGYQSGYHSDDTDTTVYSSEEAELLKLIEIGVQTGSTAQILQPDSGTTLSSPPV

| IC50 [2] [nM] | BAF3-KDR (MIN IL3) 384 well pIC50 [3] | Compound | IC50 [1] [nM] |
| --- | --- | --- | --- |
| 427 | <5 | COc1cc(OC)cc(N(CC#Cc2ncccc2OC)c2ccc3ncc(-c4cccnc4)nc3c2)c1 [Compound 183] | > 10000 |
| 309 | <5 | COc1cc(OC)cc(N(CCO)c2ccc3ncc(C(=O)Nc4cnn(C)c4)nc3c2)c1 [Compound 184] | > 10000 |
| 70.8 | 5.14 | COc1cc(OC)cc(N(CCNC(C)C)c2ccc3ncc(-c4ccnn4C4CCCCO4)nc3c2)c1 (stereo not drawn) [Compound 188] | > 10000 |

The next lines start with the compound.

| Compound | IC50 [2] [nM] | BAF3-KDR (MIN IL3) 384 well pIC50 [3] | IC50 [1] [nM] |
| --- | --- | --- | --- |
| COc1cc(OC)cc(N(CCO)c2ccc3ncc(C4CCN(C(=O)OC(C)(C)C)CC4)nc3c2)c1 [Compound 185] | > 1000 | <5 | > 10000 |
| COc1cc(OC)cc(N(CCCO)c2ccc3ncc(-c4ccnc(C(=O)NCCOCCO)c4)nc3c2)c1 [Compound 186] | 126 | <5 | > 10000 |
| COc1cc(OC)cc(N(CCNC(C)C)c2ccc3ncc(-c4ccn[nH]4)nc3c2)c1 [Compound 189] | 7.24 | 5.14 | > 10000 |
